Molecules are shown by their SMILES.

The conditions of data set [1]: cited from earlier work; for ODT (ppb): odor detection threshold, Table 3.
Data set [2] is described as follows: Stability and malodor coverage evaluation of odorants in permanent hair color crème (10% ammonia). The arrangement: key to malodor coverage rating 1 Week RT / malodor coverage rating 1 Week Oven / malodor coverage rating 6 Weeks RT / malodor coverage rating 6 Weeks Oven / malodor coverage rating 2 Weeks RT / malodor coverage rating 2 Weeks Oven / malodor coverage rating 3 Weeks RT / malodor coverage rating 3 Weeks Oven / malodor coverage rating 4 Weeks RT / malodor coverage rating 4 Weeks Oven / malodor coverage rating 5 Weeks RT / malodor coverage rating 5 Weeks Oven: E: excellent; VG: very good; G: good coverage; key to odorant performance 1 Week RT / odorant performance 1 Week Oven / odorant performance 2 Weeks RT / odorant performance 2 Weeks Oven / odorant performance 3 Weeks RT / odorant performance 3 Weeks Oven / odorant performance 4 Weeks RT / odorant performance 4 Weeks Oven: E=excellent; VG=very good; G=good; F=fair; P=poor. As to conditions: for malodor coverage rating 1 Week Oven / malodor coverage rating 1 Week RT / malodor coverage rating 2 Weeks Oven / malodor coverage rating 2 Weeks RT / malodor coverage rating 3 Weeks Oven / malodor coverage rating 3 Weeks RT / malodor coverage rating 4 Weeks Oven / malodor coverage rating 4 Weeks RT / malodor coverage rating 5 Weeks Oven / malodor coverage rating 5 Weeks RT / malodor coverage rating 6 Weeks Oven / malodor coverage rating 6 Weeks RT: 10% ammonia formulation; for malodor coverage rating 1 Week Oven / malodor coverage rating 2 Weeks Oven / malodor coverage rating 3 Weeks Oven / malodor coverage rating 4 Weeks Oven / malodor coverage rating 5 Weeks Oven / malodor coverage rating 6 Weeks Oven: oven at 37° C.; for malodor coverage rating 1 Week RT / malodor coverage rating 2 Weeks RT / malodor coverage rating 3 Weeks RT / malodor coverage rating 4 Weeks RT / malodor coverage rating 5 Weeks RT / malodor coverage rating 6 Weeks RT / odorant performance 1 Week RT / odorant performance 2 Weeks RT / odorant performance 3 Weeks RT / odorant performance 4 Weeks RT: room temperature; for odorant performance 1 Week Oven / odorant performance 1 Week RT / odorant performance 2 Weeks Oven / odorant performance 2 Weeks RT / odorant performance 3 Weeks Oven / odorant performance 3 Weeks RT / odorant performance 4 Weeks Oven / odorant performance 4 Weeks RT: odorant at 0.2% in dye less permanent hair color crème (10% ammonia hydroxide); for odorant performance 1 Week Oven / odorant performance 2 Weeks Oven / odorant performance 3 Weeks Oven / odorant performance 4 Weeks Oven: oven temperature. The source says:
The marks E, VG, G stand for excellent, very good and good coverage and are part of a 5 scale rating system. […] Odorants were put up at 0.2% in the formulation, and odorants were subjected to 6 week stability testing at room temperature (R.T.) and […] oven temperature. […] G=good, F=fair; P=poor).

For `CCC(C)COC(C)=O` (stereo not drawn) [β-methyl butyl acetate], the “ODT (ppb)” value in data set [1] is on record as “less than 50 ppb”.

With `CCCCCC(=O)CC` [3-octanone], the “ODT (ppb)” value in data set [1] is recorded as “less than 50 ppb”.

Turning to `CCOC(=O)CC1(C)OCCO1` [ethyl 2-methyl-1,3-dioxolane-2-acetate], the “ODT (ppb)” value in data set [1] is given as “less than 50 ppb”.

Consider `CC/C=C\CCOC(=O)OC` [cis-3-hexenyl methyl carbonate], for which the “ODT (ppb)” value in data set [1] is listed as “less than 50 ppb”.

Take `CCCCCCOC` [methyl hexyl ether]: the “ODT (ppb)” value in data set [1] is given as “less than 50 ppb”.

As for `CC12CCC(CC1)C(C)(C)O2` [1,3,3-trimethyl-2-oxabicyclo[2.2.2]octane], the “ODT (ppb)” value in data set [1] is “less than 50 ppb”.

Regarding `CCOC(=O)C(C)CC` (centres unmarked) [ethyl-2-methylbutyrate], the “ODT (ppb)” value in data set [1] is “less than 50 ppb”.

For the compound `CCCC(C)C(=O)OCC` (centres unmarked) [ethyl 2-methylpentanoate], the “ODT (ppb)” value in data set [1] is recorded as “less than 50 ppb”.

For `CCCCCCOC(C)=O` [hexyl acetate], the “ODT (ppb)” value in data set [1] was “less than 50 ppb”.

On to `CCCCCC=O` [hexanal], for which, in data set [1], the “ODT (ppb)” value was “less than 50 ppb”.

In the case of `CCCC(=O)OCC` [ethyl butyrate], the “ODT (ppb)” value in data set [1] is on record as “less than 50 ppb”.

`CCCOC(=O)CCC` [propyl butyrate]: the “ODT (ppb)” value in data set [1] is listed as “less than 50 ppb”.

`CCCCCOC(C)=O` [pentyl acetate]: the “ODT (ppb)” value in data set [1] is recorded as “less than 50 ppb”.

Turning to `CCOC(=O)CC` [ethyl propionate], the “ODT (ppb)” value in data set [1] is listed as “less than 50 ppb”.

As to `CC1COCc2cc3c(cc21)C(C)(C)C(C)C3(C)C` (centres unmarked) [Galaxolide, 1,3,4,6,7,8-Hexahydro-4,6,6,7,8,8-hexamethylcyclopenta-γ-2-benzopyran], in data set [2], the “malodor coverage rating 1 Week Oven” value is listed as “E”, the “malodor coverage rating 1 Week RT” value is “E”, the “malodor coverage rating 2 Weeks Oven” value was “VG” and the “malodor coverage rating 2 Weeks RT” value was “VG”. Further, in data set [2], the “malodor coverage rating 3 Weeks Oven” value is recorded as “G”, the “malodor coverage rating 3 Weeks RT” value is recorded as “G”, the “malodor coverage rating 4 Weeks Oven” value is “G” and the “malodor coverage rating 4 Weeks RT” value is given as “G”. Besides, in data set [2], the “malodor coverage rating 5 Weeks Oven” value is “G”, the “malodor coverage rating 5 Weeks RT” value is listed as “G”, the “malodor coverage rating 6 Weeks Oven” value was “G” and the “malodor coverage rating 6 Weeks RT” value was “G”.

For `COC(=O)C=C1CCCC1` [methyl cyclopentylidene acetate], the “ODT (ppb)” value in data set [1] was “less than 50 ppb”.

`CCCCCCC(C=O)=Cc1ccccc1` [Hexyl cinnamic aldehyde]: in data set [2], the “odorant performance 1 Week Oven” value is on record as “G”, the “odorant performance 1 Week RT” value is on record as “G”, the “odorant performance 2 Weeks Oven” value is “G” and the “odorant performance 2 Weeks RT” value is listed as “G”. Also, in data set [2], the “odorant performance 3 Weeks Oven” value is listed as “G”, the “odorant performance 3 Weeks RT” value is recorded as “G”, the “odorant performance 4 Weeks Oven” value is recorded as “G” and the “odorant performance 4 Weeks RT” value was “G”. Moreover, in data set [2] (odorant at 0.2% in permanent hair color crème (10% ammonia hydroxide), remark beside the raw material), the “stability observation in the formulation” value was “HEXYL CINNAMIC ALDEHYDE (cloudy)”.

In the case of `CCC/C=C/C=O` [TRANS-2-HEXENAL @ 10% DPG, TRANS-2-HEXENAL], in data set [2], the “odorant performance 1 Week Oven” value was “F”, the “odorant performance 1 Week RT” value is listed as “G”, the “odorant performance 2 Weeks Oven” value is recorded as “F” and the “odorant performance 2 Weeks RT” value was “G”. Besides, in data set [2], the “odorant performance 3 Weeks Oven” value is given as “F”, the “odorant performance 3 Weeks RT” value is “G”, the “odorant performance 4 Weeks Oven” value is listed as “F” and the “odorant performance 4 Weeks RT” value was “F”.

With `CCCCCC(=O)OCC` [ethyl hexanoate], in data set [1], the “ODT (ppb)” value is “less than 50 ppb”.

For the compound `CC1CC=CCCCCCCCCCC(=O)C1` (centres unmarked) [MUSCENONE @ 10% DPG], in data set [2], the “odorant performance 1 Week Oven” value is “F”, the “odorant performance 1 Week RT” value is listed as “F”, the “odorant performance 2 Weeks Oven” value was “F” and the “odorant performance 2 Weeks RT” value is reported as “F”. In data set [2], the “odorant performance 3 Weeks Oven” value was “F”, the “odorant performance 3 Weeks RT” value is listed as “F”, the “odorant performance 4 Weeks Oven” value is “F” and the “odorant performance 4 Weeks RT” value is “F”.

On to `CCOC(=O)CC(C)C` [ethyl 3-methylbutanoate], for which the “ODT (ppb)” value in data set [1] is “less than 50 ppb”.

For the compound `CC=CC(=O)C1=C(C)CCCC1(C)C` [β-damascone, β-1-(2,6,6-trimethyl-1-cyclohexen-1-yl)-2-buten-1-one], in data set [2], the “malodor coverage rating 1 Week Oven” value is “VG”, the “malodor coverage rating 1 Week RT” value is reported as “E”, the “malodor coverage rating 2 Weeks Oven” value was “VG” and the “malodor coverage rating 2 Weeks RT” value is “E”. Besides, in data set [2], the “malodor coverage rating 3 Weeks Oven” value is recorded as “G”, the “malodor coverage rating 3 Weeks RT” value is “VG”, the “malodor coverage rating 4 Weeks Oven” value was “G” and the “malodor coverage rating 4 Weeks RT” value is recorded as “VG”. In data set [2], the “malodor coverage rating 5 Weeks Oven” value was “G”, the “malodor coverage rating 5 Weeks RT” value was “VG”, the “malodor coverage rating 6 Weeks Oven” value was “G” and the “malodor coverage rating 6 Weeks RT” value is “G”. Besides, in data set [2], the “odorant performance 1 Week Oven” value was “VG”, the “odorant performance 1 Week RT” value is listed as “E”, the “odorant performance 2 Weeks Oven” value was “VG” and the “odorant performance 2 Weeks RT” value is reported as “E”. In addition, in data set [2], the “odorant performance 3 Weeks Oven” value is “G”, the “odorant performance 3 Weeks RT” value was “VG”, the “odorant performance 4 Weeks Oven” value is given as “G” and the “odorant performance 4 Weeks RT” value is reported as “VG”. In addition, the “odor detection threshold value in water” value in data set [1] (in water) is given as 0.09 parts per billion.

Turning to `CC(C)=CCCC(C)C=O` (centres unmarked) [2,6-dimethyl-5-heptenal], the “ODT (ppb)” value in data set [1] was “less than 50 ppb”.

Consider `CC/C=C\CCC=O` [cis-4-heptenal], for which the “ODT (ppb)” value in data set [1] is “less than 50 ppb”.

The values above are taken from US7585833B2, “Malodor covering perfumery” (Givaudan Fragrances Corporation, priority 2005, dated 2009).
